The text below walks through data of patent US20100152434A1, “Protein Kinase-binding Nucleosides and Associated Methods” (priority 2007, published 2010).

The target in one experiment is CSNK1G2 (Homo sapiens, UniProt P78368). The experiment in a line: Ambit kinase phage display ATP-binding-site ligand binding assay. The note with it: read-out: % Inhibition of binding to ATP-binding-site ligand.
A further experiment addresses BTK (Homo sapiens, UniProt Q06187). Description: SignalChem radioisotope protein kinase assay. The experiment is classed as biochemical. On the set-up: host or cells: T7 phage in an E. coli BL21-derived host. Conditions: 5 μl of 100 μM stock solution in 25 μl. An excerpt:
The various protein kinase targets to be employed in the kinase profiling assay were cloned, expressed and purified in-house at SignalChem (Richmond, BC, Canada) using proprietary methods. Quality control testing is routinely performed on each of the SignalChem targets to ensure compliance to acceptable standards. Protein substrates employed in the target profiling process were synthesized internally. ^33P-ATP was purchased from PerkinElmer. All other materials were of standard grade. Compound 10 (FIG. 4) was supplied to SignalChem in a powder form. It was reconstituted in DMSO to form a stock solution which was then diluted with 10% DMSO to form a working stock solution (100 μM) that was then profiled against the various protein kinase targets. The assay conditions for the various protein kinase targets were optimized to yield acceptable enzymatic activity. In addition, the assays were optimized to give high signal-to-noise ratio. […]
The assay was initiated by the addition of ^33P-ATP and the reaction mixture incubated at ambient temperature for 20-40 minutes, depending on the protein kinase target. […] The radioactivity on the P81 plate was counted in the presence of scintillation fluid in a Trilux scintillation counter. […] The corrected activity for each protein kinase target was determined by removing the blank control value.

The next experiment deals with RPS6KA2 (Homo sapiens, UniProt Q15349). The experiment in a line: Ambit kinase phage display ATP-binding-site ligand binding assay. The note with it: read-out: percent inhibition of binding.
A further experiment has as its target TYK2 (Homo sapiens, UniProt P29597). Described as above. The note with it: read-out: % Inhibition of binding to ATP-binding-site ligand.
The target of a further experiment is MST1 (Homo sapiens, UniProt Q13043). Described as above. Conditions: read-out: percent inhibition of binding.
A further experiment addresses CLK4 (Homo sapiens, UniProt Q9HAZ1). The experiment is described as above. The note with it: read-out: percent inhibition of binding.

Sequence of RPS6KA2 (Q15349 whole entry): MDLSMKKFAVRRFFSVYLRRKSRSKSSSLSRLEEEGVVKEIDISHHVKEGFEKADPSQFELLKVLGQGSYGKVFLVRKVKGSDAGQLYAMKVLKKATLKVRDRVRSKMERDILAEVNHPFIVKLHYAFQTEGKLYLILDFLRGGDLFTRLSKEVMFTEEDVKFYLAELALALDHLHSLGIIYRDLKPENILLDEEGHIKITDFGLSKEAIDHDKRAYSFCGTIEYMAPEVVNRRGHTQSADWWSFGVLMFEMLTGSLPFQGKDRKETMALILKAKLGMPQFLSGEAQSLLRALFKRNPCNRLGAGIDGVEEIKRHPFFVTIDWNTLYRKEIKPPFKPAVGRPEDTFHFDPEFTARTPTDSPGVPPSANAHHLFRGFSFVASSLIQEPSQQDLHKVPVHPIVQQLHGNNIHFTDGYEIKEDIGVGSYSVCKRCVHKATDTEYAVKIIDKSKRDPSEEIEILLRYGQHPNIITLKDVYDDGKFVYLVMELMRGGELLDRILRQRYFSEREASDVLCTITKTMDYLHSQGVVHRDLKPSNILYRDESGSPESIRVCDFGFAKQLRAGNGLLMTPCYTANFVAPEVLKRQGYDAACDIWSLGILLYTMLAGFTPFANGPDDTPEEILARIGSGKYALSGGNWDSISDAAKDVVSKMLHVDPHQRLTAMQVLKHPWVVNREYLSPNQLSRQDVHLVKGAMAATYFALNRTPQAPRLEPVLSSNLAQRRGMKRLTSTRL
Sequence of CSNK1G2 (P78368 whole entry): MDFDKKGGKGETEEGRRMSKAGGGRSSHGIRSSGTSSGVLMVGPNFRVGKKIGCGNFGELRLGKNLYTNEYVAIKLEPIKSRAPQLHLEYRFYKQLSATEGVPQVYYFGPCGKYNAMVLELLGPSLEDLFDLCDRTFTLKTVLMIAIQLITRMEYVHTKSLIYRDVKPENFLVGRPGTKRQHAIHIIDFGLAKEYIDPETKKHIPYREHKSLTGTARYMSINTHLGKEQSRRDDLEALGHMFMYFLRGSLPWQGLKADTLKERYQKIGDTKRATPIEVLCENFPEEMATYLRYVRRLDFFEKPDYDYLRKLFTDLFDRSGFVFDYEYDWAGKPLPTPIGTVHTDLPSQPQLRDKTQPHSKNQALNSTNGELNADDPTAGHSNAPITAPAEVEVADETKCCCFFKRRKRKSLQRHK
Sequence of TYK2 (P29597 whole entry): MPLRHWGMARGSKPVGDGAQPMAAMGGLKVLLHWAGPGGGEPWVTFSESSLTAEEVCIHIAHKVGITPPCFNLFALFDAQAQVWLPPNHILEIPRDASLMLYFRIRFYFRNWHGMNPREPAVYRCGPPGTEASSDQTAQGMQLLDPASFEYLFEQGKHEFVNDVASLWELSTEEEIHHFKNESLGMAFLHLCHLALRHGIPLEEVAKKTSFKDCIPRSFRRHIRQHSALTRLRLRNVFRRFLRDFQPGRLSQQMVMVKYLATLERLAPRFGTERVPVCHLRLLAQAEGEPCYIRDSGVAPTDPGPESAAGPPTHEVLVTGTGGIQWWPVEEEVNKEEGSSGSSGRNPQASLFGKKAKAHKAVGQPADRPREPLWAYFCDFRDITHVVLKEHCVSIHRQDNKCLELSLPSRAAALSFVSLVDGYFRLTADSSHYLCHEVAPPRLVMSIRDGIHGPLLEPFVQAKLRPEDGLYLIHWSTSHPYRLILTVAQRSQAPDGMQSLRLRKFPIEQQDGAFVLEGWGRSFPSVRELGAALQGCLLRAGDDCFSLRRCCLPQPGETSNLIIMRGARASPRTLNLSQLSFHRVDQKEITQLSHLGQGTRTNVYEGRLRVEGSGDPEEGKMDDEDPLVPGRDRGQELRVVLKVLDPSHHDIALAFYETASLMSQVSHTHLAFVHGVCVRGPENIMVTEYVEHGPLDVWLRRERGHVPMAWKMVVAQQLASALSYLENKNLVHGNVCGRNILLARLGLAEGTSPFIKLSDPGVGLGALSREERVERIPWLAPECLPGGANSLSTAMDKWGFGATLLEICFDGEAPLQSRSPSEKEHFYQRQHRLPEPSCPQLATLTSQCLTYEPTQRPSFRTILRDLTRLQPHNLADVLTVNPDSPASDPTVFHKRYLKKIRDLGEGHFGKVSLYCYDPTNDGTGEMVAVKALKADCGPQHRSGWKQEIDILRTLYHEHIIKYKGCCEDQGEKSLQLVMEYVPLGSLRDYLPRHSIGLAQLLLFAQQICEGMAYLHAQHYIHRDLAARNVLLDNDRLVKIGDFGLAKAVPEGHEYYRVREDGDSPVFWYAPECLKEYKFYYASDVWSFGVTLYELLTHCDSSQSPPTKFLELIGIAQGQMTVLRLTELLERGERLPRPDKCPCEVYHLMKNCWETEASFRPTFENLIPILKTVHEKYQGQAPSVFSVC
Sequence of CLK4 (Q9HAZ1 whole entry): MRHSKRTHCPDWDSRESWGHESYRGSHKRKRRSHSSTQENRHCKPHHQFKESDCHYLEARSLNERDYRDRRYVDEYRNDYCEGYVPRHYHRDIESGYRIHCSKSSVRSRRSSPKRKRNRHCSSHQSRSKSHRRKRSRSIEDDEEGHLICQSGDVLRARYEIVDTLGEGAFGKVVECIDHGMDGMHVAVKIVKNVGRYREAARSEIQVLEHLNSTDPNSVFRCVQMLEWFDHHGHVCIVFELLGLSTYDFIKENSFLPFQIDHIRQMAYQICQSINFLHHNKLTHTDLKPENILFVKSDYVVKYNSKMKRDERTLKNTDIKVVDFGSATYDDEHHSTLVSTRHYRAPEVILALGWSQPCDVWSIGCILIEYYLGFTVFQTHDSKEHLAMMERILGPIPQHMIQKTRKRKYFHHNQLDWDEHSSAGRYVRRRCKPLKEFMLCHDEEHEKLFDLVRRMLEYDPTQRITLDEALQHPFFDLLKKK
Sequence of BTK (Q06187 whole entry, species assumed): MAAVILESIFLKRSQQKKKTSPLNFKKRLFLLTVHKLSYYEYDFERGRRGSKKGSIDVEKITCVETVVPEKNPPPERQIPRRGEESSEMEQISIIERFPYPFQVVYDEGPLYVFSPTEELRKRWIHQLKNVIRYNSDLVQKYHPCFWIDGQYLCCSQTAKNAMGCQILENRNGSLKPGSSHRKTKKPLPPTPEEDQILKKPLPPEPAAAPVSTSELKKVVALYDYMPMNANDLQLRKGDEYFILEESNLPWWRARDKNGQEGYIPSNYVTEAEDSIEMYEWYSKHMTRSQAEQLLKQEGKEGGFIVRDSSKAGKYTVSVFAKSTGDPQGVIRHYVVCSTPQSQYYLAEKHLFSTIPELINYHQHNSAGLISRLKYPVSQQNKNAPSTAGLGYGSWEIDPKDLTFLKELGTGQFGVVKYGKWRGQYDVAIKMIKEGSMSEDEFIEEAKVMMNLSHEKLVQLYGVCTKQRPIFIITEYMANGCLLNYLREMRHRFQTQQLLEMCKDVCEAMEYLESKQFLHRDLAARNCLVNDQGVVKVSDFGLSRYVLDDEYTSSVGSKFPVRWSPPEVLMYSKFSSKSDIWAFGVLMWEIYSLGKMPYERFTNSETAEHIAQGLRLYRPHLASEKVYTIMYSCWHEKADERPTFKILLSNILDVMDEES
Sequence of MST1 (Q13043 whole entry): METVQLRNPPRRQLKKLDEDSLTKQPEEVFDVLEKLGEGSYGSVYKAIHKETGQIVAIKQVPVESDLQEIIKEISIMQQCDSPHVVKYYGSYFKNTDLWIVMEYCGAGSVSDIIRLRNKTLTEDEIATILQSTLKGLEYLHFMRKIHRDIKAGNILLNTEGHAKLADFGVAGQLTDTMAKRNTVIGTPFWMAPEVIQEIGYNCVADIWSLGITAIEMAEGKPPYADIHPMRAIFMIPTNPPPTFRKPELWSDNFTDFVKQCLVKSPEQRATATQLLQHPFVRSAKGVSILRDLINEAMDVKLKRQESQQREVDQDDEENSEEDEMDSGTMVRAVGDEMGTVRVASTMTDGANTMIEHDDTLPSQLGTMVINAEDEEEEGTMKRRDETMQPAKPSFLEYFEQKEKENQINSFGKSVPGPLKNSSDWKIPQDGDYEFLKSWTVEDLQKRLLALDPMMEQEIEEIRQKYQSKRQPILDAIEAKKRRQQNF
Excerpt for CLK4: (§1) In this assay, protein kinases are cloned into T7 bacteriophage which express the kinase fusion proteins on the phage capsid. T7 kinase-tagged phage are then screened for binding to ATP-binding-site ligands that have been immobilized on a solid support. Phage are screened for binding to the anchored ligands both in the presence of test compound and in its absence (control). Elution of the bound phage by free ligand (ATP-binding site ligand that is not immobilized on a solid support) followed by determination of the phage titre provides a reliable measure of the ability of test compounds to block binding of target kinases to resin-bound ATP-binding-site ligands.
(§2) T7 kinase-tagged phage strains were grown in parallel in microtiter plates in a proprietary bacterial host derived from E. Coli strain BL21. E. Coli were grown to a log phase, infected with T7 kinase-tagged phage, and incubated while shaking at 32° C. until bacterial lysis (approx. 90 min). Lysates were centrifuged (6,000 g) and filtered (0.2 μm). Small molecule ATP-binding-site-specific ligands were anchored to solid supports via a two step process beginning with biotin conjugation followed by treatment of the biotin/small molecule conjugate with streptavidin-coated magnetic beads. […] The phage titre of the eluates was measured by quantitative PCR or by plaque assays. […]
Excerpt for CSNK1G2: as §1, §2
Excerpt for MST1: as §1, §2
Excerpt for RPS6KA2: (§3) This assay is based on ligand-affinity/protein kinase phage display and was employed essentially as described by Fabian et. al [Nature Biotech. […] In this assay, protein kinases are cloned into T7 bacteriophage which express the kinase fusion proteins on the phage capsid. T7 kinase-tagged phage are then screened for binding to ATP-binding-site ligands that have been immobilized on a solid support. Phage are screened for binding to the anchored ligands both in the presence of test compound and in its absence (control). Elution of the bound phage by free ligand (ATP-binding site ligand that is not immobilized on a solid support) followed by determination of the phage titre provides a reliable measure of the ability of test compounds to block binding of target kinases to resin-bound ATP-binding-site ligands.
(§4) T7 kinase-tagged phage strains were grown in parallel in microtiter plates in a proprietary bacterial host derived from E. Coli strain BL21. E. Coli were grown to a log phase, infected with T7 kinase-tagged phage, and incubated while shaking at 32° C. until bacterial lysis (approx. 90 min). Lysates were centrifuged (6,000 g) and filtered (0.2 μm). […] The phage titre of the eluates was measured by quantitative PCR or by plaque assays. […]
Excerpt for TYK2: as §3, §4

On to `CCOC(=O)C[C@@H]1C(O[Si](C)(C)C(C)(C)C)[C@H](n2cnc3c(NC(=O)Nc4ccccc4)ncnc32)O[C@@H]1CNC(=O)NC` (stereo partly drawn) [Compound 10], for which the inhibition at 10 µM at CSNK1G2 was 38%; at RPS6KA2, 20 to 29%; at TYK2, 31%; at MST1 it was 20 to 29%; on CLK4, 20 to 29%. At BTK, the “% Activity Change” value was 10%.

In general, inhibition refers to the percentage by which the read-out fell short of the control.
